Literature values, collected in patent publication US11083734B2 (ACUCORT AB, priority 2014, dated 2021).

Key:
[1] = humans, oral administration, literature and product information

Row | solubility in water | t(max) [1] | solubility in anhydrous ethanol | SMILES
1 | freely soluble |  |  | C[C@@H]1C[C@H]2[C@@H]3CCC4=CC(=O)C=C[C@]4(C)[C@@]3(F)[C@@H](O)C[C@]2(C)[C@@]1(O)C(=O)COP(=O)(O)O [dexamethasone sodium phosphate]
2 | practically insoluble | ~1.5 h | sparingly soluble | C[C@@H]1C[C@H]2[C@@H]3CCC4=CC(=O)C=C[C@]4(C)[C@@]3(F)[C@@H](O)C[C@]2(C)[C@@]1(O)C(=O)CO [dexamethasone]
